Consider ten compounds from US20120184542A1, “PYRIDO PYRIMIDINES” (priority 2011, published 2012).

Experiment [1] addresses T1, Human DYRK1B (Homo sapiens, UniProt Q9Y463).
T1 construct: purchased Invitrogen PR8350B (former PV4649)
Description: DYRK1B Kinase TR-FRET (IMAP-Tb) Assay. It counts as biochemical. As to conditions: for inhibition at 10 µM: read-out: % inhibition of DYRK1B at 10 μM test compound concentration; for IC50: TR-FRET (IMAP-Tb), ATP 70 μM, 37° C. 60 minutes, read-out: Enzyme IC50 (μM) DYRK1B. Background: TR-FRET usually uses a lanthanide donor and a delayed reading to cut background.

Experiment [2] has as its target T2, Human DYRK1A (Homo sapiens, UniProt Q13627).
T2 construct: purchased Invitrogen PV3997
Description: DYRK1A Kinase TR-FRET (IMAP-Tb) Assay. The experiment is classed as biochemical. As to conditions: TR-FRET (IMAP-Tb); ATP 70 μM; 37° C. 60 minutes; read-out: Enzyme IC50 (μM) DYRK1A. The source says: The kinase TR-FRET (IMAP-Tb) assay uses a fluorescence labeled substrate peptide in the kinase reaction. Upon phosphorylation by the kinase, phosphopeptide is produced, which will be detected by the binding solution provided in IMAP TR-FRET binding kit. After the completion of the kinase reaction, the reaction will be stopped by adding the binding solution containing terbium tracer. This tracer is immobilized on the surface of the IMAP beads, which also contain metal ions on the beads that bind to the phospho-groups of the products. Thus the phosphorylated product of the reaction can enter into close proximity to the tracer, producing resonance energy transfer. Due to the long lifetime of terbium (Tb) fluorescence the detection can be run in time resolved mode, which virtually eliminates fluorescence interference from assay components or compounds.
The TR-FRET signal measurement from this assay, given as an IC50 measurement, is a measure of a test compound's ability to interfere with the phosphorylation of the peptide substrate, that is it inhibits the phosphorylation of the substrate peptide by DYRK1A, and is thus a measure of the test compound's ability to inhibit the activity of DYRK1A.
• 1. Human DYRK1A: from Invitrogen. Part #PV3997 • 2. Substrate Peptide: […] • 3. IMAP TR-FRET IPP Explorer Kit: from Molecular Devices. Part #R8157 • 4. Kinase Assay Buffer (KAB): 10 mM HEPES pH 7.0, 50 mM NaCl, 5 mM MgCl2, 1 mM DTT, 1 mM NaVO4, 200 μg/mL BSA (0.02%) • 5. Assay Plate: Remp polypropylene clear 384-well microplate. […] Detection Plate: Costa black 384-well microplate.
• 1. Transfer 1.5 μL of 20× compound solution to each well of an assay plate. • 2. Add to each well 22.5 μL of KAB Buffer. • 3. Add to each well 3 μL of the solution of DYRK1A and ATP. […] Add to each well 3 μL of the substrate peptide. The assay concentration is 1.0 μM • 5. Incubate the assay plates at 37° C. for 60 minutes. • 6. Add 18 μL of Detection Solution (1:800 diluted Progress bead stock, 1:400 diluted Tb stock, 80% Buffer A, and 20% Buffer B) into each well of detection plates. • 7. Transfer 6 μL of assay solution from the assay plate to the detection plate. • 8. Shake detection plates for 30 minutes. • 9. Read plates in Envision with wavelength set at excitation 340 nm for Tb, emission 490 nm, and […].

T1 sequence (Q9Y463 whole entry): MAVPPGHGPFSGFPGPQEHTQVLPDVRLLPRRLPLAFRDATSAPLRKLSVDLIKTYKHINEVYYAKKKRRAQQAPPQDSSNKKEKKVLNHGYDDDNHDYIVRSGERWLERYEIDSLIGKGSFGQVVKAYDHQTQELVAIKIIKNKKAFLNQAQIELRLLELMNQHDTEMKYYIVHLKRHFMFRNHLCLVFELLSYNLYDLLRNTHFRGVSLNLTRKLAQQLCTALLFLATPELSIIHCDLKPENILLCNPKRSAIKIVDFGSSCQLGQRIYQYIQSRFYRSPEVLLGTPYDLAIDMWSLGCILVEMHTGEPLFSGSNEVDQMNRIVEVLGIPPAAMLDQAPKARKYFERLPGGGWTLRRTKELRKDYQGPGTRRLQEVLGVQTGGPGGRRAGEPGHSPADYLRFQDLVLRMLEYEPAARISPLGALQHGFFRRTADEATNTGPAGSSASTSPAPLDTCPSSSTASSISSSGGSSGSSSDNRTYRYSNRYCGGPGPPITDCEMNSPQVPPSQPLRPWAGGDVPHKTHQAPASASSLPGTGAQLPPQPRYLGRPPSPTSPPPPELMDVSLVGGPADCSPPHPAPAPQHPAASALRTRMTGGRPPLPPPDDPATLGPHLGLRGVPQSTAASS

Turning to `CC(C)(C)CNC(=O)c1ccc(Cl)c(NC(=O)c2cc3cnc(N4CCOCC4)nc3[nH]c2=O)c1` [Example 142, 2-Morpholin-4-yl-7-oxo-7,8-dihydro-pyrido[2,3-d]pyrimidine-6-carboxylic acid [2-chloro-5-(2,2-dimethyl-propylcarbamoyl)-phenyl]-amide], the inhibition at 10 µM in experiment [1] is 44%. The half-maximal inhibitory concentration (IC50) in experiment [2] turned out to be 2.43 µM.

In the case of `CCOCCN(CCOCC)c1ncc2cc(C(=O)Nc3cc(C(=O)OC)ccc3Cl)c(=O)[nH]c2n1` [Example 40, 3-({2-[Bis-(2-ethoxy-ethyl)-amino]-7-oxo-7,8-dihydro-pyrido[2,3-d]pyrimidine-6-carbonyl}-amino)-4-chloro-benzoic acid methyl ester], the figures for the IC50 in experiment [1] and in experiment [2] were 0.22 µM and 0.208 µM, respectively.

Regarding `COC(=O)c1ccc(Br)c(NC(=O)c2cc3cnc(OC)nc3[nH]c2=O)c1` [Example 48, 4-Bromo-3-[(2-methoxy-7-oxo-7,8-dihydro-pyrido[2,3-d]pyrimidine-6-carbonyl)-amino]-benzoic acid methyl ester], the 50% inhibitory concentration (IC50) came to 0.217 µM in experiment [1] and 0.205 µM in experiment [2].

`COc1ncc2cc(C(=O)Nc3cc(C(=O)N(C)Cc4cccc(Cl)c4)ccc3C)c(=O)[nH]c2n1` [Example 63, 2-Methoxy-7-oxo-7,8-dihydro-pyrido[2,3-d]pyrimidine-6-carboxylic acid {5-[(3-chloro-benzyl)-methyl-carbamoyl]-2-methyl-phenyl}-amide]: the inhibition at 10 µM in experiment [1] was found to be 28%. Besides, in experiment [2], the IC50 is 4.58 µM.

For `COc1ncc2cc(C(=O)Nc3cc(C(=O)O)ccc3Cl)c(=O)[nH]c2n1` [Example 22, 4-Chloro-3-[(2-methoxy-7-oxo-7,8-dihydro-pyrido[2,3-d]pyrimidine-6-carbonyl)-amino]-benzoic acid], the results for the IC50 in experiment [1] and in experiment [2] were 2.73 µM and 0.601 µM, respectively.

Take `COc1ncc2cc(C(=O)Nc3cc(C(=O)NC(CN)C4CCCC4)ccc3Cl)c(=O)[nH]c2n1` (centres unmarked) [Example 200, 2-Methoxy-7-oxo-7,8-dihydro-pyrido[2,3-d]pyrimidine-6-carboxylic acid [5-(2-amino-1-cyclopentyl-ethylcarbamoyl)-2-chloro-phenyl]-amide]: the IC50 was 0.47 µM in experiment [1] and 0.54 µM in experiment [2].

For the compound `COc1ncc2cc(C(=O)Nc3cc(C(=O)N(C)Cc4ccccc4)ccc3Cl)c(=O)[nH]c2n1` [Example 60, 2-Methoxy-7-oxo-7,8-dihydro-pyrido[2,3-d]pyrimidine-6-carboxylic acid [5-(benzyl-methyl-carbamoyl)-2-chloro-phenyl]-amide], the half-maximal inhibitory concentration (IC50) in experiment [1] worked out at 0.357 µM; in experiment [2], 0.561 µM.

For the compound `COc1ncc2cc(C(=O)Nc3cc(C(=O)NC(CCN)C4CCCC4)ccc3Cl)c(=O)[nH]c2n1` (centres unmarked) [Example 198, 2-Methoxy-7-oxo-7,8-dihydro-pyrido[2,3-d]pyrimidine-6-carboxylic acid [5-(3-amino-1-cyclopentyl-propylcarbamoyl)-2-chloro-phenyl]-amide], the IC50 stood at 0.36 µM in experiment [1] and 0.47 µM in experiment [2].

As for `CN(Cc1cccc(Cl)c1)C(=O)c1ccc(Cl)c(NC(=O)c2cc3cnc(N4CCCCC4)nc3[nH]c2=O)c1` [Example 64, 7-oxo-2-piperidin-1-yl-7,8-dihydro-pyrido[2,3-d]pyrimidine-6-carboxylic acid {2-chloro-5-[(3-chloro-benzyl)-methyl-carbamoyl]-phenyl}-amide], in experiment [1], the inhibition at 10 µM is 46.6%. For the same compound, in experiment [2], the IC50 stood at 0.903 µM.

`COC(=O)c1ccc(Cl)c(NC(=O)c2cc3cnc(N4CCNCC4)nc3[nH]c2=O)c1` [Example 37, 4-Chloro-3-[(7-oxo-2-piperazin-1-yl-7,8-dihydro-pyrido[2,3-d]pyrimidine-6-carbonyl)-amino]-benzoic acid methyl ester]: the results for the IC50 in experiment [1] and in experiment [2] were 0.405 µM and 0.468 µM, respectively.

What is called IC50 is the point on the concentration scale where inhibition reaches its midpoint.
